In patent publication US20230203003A1, “Notch Inhibitors and Uses Thereof” (StemSynergy Therapeutics, Inc., priority 2020, published 2023):
Structures can show the parent of a compound that is named as a salt. Where two headings read alike, the source gives them in different places.

Molecular target: T1, hNotch1ICD (Homo sapiens, UniProt P46531)
T1 construct: pLV[Tet]-Puro-TRE3G>Notch1-ICD; expressed in transfected cells; host or cells: 293A cells
Assay: Notch1 Reporter Assay (Dox-inducible Notch1-ICD, CSL-responsive luciferase in 293A cells)
Assay type: cell-based
Protocol: 293A cells expressing 1) pCMV-Tet-On 3G, 2) pLV[Tet]-Puro-TRE3G>Notch1-ICD, 3) pLV[Tet]-Puro-TRE3G>Notch2-ICD, 4) pLV[Tet]-Puro-TRE3G>Notch3-ICD, and 5) pCSL-RElement-Luc were used. When Doxycycline is added, the Tet-ON gene activates expression of hNotch1ICD, which together with endogenous NTC components binds to CSL responsive elements (pCSL-RElement-Luc) and expresses luciferase. 1 ×× 10^4 cells are plated in 100 µL (96-well format). 24 h later, compounds (10 mM stock in DMSO) are diluted in DMSO to 200X, then added (5 ul into 1 mL) to cell culture media containing 50 ng/mL Dox. This is then added 1:1 to cells. Final DMSO = 0.25%, Dox = 25 ng/mL. After 24 h, media is discarded, and cells are lysed in passive lysis buffer (Promega). Cells are rocked at room temperature for 15 min and then lysate is divided for luciferase assay (Luciferase Assay System, Promega) and cell viability (CellTiter Glo 2.0, Promega). Raw luciferase is normalized to cell viability, and then scaled to DMSO wells. Results are analyzed and IC50′s are determined in GraphPad by nonlinear regression curve fitting (4 parameter) of dose response curves.

[1] = value printed in the synthesis heading of the compound, read-out: Notch1 Reporter Assay IC50
[2] = 293A cells, 24 h, luciferase normalized to cell viability, read-out: Notch1 Reporter Assay IC50

T1 sequence (P46531 1754-2555 limits assumed): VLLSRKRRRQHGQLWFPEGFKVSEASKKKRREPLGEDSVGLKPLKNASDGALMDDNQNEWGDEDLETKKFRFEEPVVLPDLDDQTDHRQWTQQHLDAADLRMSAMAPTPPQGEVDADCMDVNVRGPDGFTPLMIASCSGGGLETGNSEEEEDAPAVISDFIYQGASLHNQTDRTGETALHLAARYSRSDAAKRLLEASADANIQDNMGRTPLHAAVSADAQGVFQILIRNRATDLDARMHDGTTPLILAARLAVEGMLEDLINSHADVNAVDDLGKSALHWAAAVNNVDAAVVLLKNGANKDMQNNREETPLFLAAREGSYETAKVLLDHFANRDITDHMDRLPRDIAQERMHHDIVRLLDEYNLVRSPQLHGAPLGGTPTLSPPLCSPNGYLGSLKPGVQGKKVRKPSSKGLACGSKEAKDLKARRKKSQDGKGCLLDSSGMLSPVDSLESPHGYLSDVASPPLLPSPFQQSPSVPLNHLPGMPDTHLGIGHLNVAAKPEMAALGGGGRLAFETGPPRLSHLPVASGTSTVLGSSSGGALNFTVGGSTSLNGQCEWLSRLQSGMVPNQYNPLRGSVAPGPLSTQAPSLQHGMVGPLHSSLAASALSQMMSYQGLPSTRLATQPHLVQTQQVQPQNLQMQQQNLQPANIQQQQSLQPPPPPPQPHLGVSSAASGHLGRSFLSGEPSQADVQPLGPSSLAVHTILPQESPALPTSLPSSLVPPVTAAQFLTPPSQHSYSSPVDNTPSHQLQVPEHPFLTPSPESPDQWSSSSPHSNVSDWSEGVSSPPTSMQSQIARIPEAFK

IC50 [1]	Compound	IC50 [2]	other results
13.3 µM	Cc1cccnc1NC(=O)c1c(O)c2ccc(N3CCN(C)CC3)cc2n(CC(C)C)c1=O [SSTN-580_TFA salt, 4-hydroxy-1-isobutyl-7-(4-methylpiperazin-1-yl)-N-(3-methylpyridin-2-yl)-2-oxo-1,2-dihydroquinoline-3-carboxamide TFA salt]		
	CC(C)Cn1c(=O)c(C(=O)Nc2cccc(F)c2N2CCN(C)CC2)c(O)c2ccccc21 [581(02)]	7.7 µM	
3.4 µM	CC(C)Cn1c(=O)c(C(=O)Nc2ccc(N3CCN(C)CC3)c(F)c2)c(O)c2ccccc21 [SSTN-572_HCl salt, N-(3-fluoro-4-(4-methylpiperazin-1-yl)phenyl)-4-hydroxy-1-isobutyl-2-oxo-1,2-dihydroquinoline-3-carboxamide hydrochloride salt]		
	Cc1ncccc1NC(=O)c1c(O)c2ccccc2n(CC(C)C)c1=O [compound 540, 4-hydroxy-1-isobutyl-N-(2-methylpyridin-3-yl)-2-oxo-1,2-dihydroquinoline-3-carboxamide]	18.5 µM	
	CC(C)Cn1c(=O)c(C(=O)Nc2ccc(F)c(N3CCN(C)CC3)c2)c(O)c2ccccc21 [584(01)]	4.5 µM	
	COc1ccnc(NC(=O)c2c(O)c3ccccc3n(CC(C)C)c2=O)c1 [compound 532, 4-hydroxy-1-isobutyl-N-(4-methoxypyridin-2-yl)-2-oxo-1,2-dihydroquinoline-3-carboxamide]	12.4 µM	
1.9 µM	CC(C)Cn1c(=O)c(C(=O)Nc2cc(F)c(N3CCN(C)CC3)c(F)c2)c(O)c2ccccc21 [SSTN-582_HCl salt, N-(3,5-difluoro-4-(4-methylpiperazin-1-yl)phenyl)-4-hydroxy-1-isobutyl-2-oxo-1,2-dihydroquinoline-3-carboxamide hydrochloride salt]		
	CC(C)Cn1c(=O)c(C(=O)Nc2ncco2)c(O)c2ccccc21 [compound 528, 4-hydroxy-1-isobutyl-N-(oxazol-2-yl)-2-oxo-1,2-dihydroquinoline-3-carboxamide]	14.3 µM	
5.6 µM	CC(C)Cn1c(=O)c(C(=O)Nc2ccc(F)cc2N2CCN(C)CC2)c(O)c2ccccc21 [SSTN-570_HCl salt, N-(4-fluoro-2-(4-methylpiperazin-1-yl)phenyl)-4-hydroxy-1-isobutyl-2-oxo-1,2-dihydroquinoline-3-carboxamide hydrochloride salt]		
	CC(C)Cn1c(=O)c(C(=O)Nc2ccccc2F)c(O)c2ccccc21 [compound 537, N-(2-fluorophenyl)-4-hydroxy-1-isobutyl-2-oxo-1,2-dihydroquinoline-3-carboxamide]	5.1 µM	
	CC(C)Cn1c(=O)c(C(=O)Nc2cccc(N3CCOCC3)c2)c(O)c2ccccc21 [compound 554, 4-hydroxy-1-isobutyl-N-(3-morpholinophenyl)-2-oxo-1,2-dihydroquinoline-3-carboxamide]	4.3 µM	
	CC(C)Cn1c(=O)c(C(=O)Nc2cc(F)cc(N3CCN(C)CC3)c2)c(O)c2ccccc21 [583(01)]	8.1 µM	
	Cc1cc(NC(=O)c2c(O)c3ccccc3n(CC(C)C)c2=O)n[nH]1 [compound 549, 4-hydroxy-1-isobutyl-N-(5-methyl-1H-pyrazol-3-yl)-2-oxo-1,2-dihydroquinoline-3-carboxamide]	10.1 µM	
	Cc1cc(NC(=O)c2c(O)c3ccccc3n(CC(C)C)c2=O)on1 [compound 517, 4-hydroxy-1-isobutyl-N-(3-methylisoxazol-5-yl)-2-oxo-1,2-dihydroquinoline-3-carboxamide]		IC50 (Notch1 Reporter Assay IC50, µM, 293A cells, 24 h, luciferase normalized to cell viability): 22.6 µM
	CC(C)Cn1c(=O)c(C(=O)Nc2ccc(N3CCN(C)CC3)cc2)c(O)c2ccccc21 [569(01)]	8.4 µM	
8.13 µM	CC(C)Cn1c(=O)c(C(=O)Nc2cc(F)cc(N3CCN(C)CC3)c2)c(O)c2ccccc21 [SSTN-583, N-(3-fluoro-5-(4-methylpiperazin-1-yl)phenyl)-4-hydroxy-1-isobutyl-2-oxo-1,2-dihydroquinoline-3-carboxamide]		
4.54 µM	CC(C)Cn1c(=O)c(C(=O)Nc2ccc(F)c(N3CCN(C)CC3)c2)c(O)c2ccccc21 [SSTN-584_Formate salt, N-(4-fluoro-3-(4-methylpiperazin-1-yl)phenyl)-4-hydroxy-1-isobutyl-2-oxo-1,2-dihydroquinoline-3-carboxamide formate salt]		
	CC(C)Cn1c(=O)c(C(=O)Nc2cc(Cl)ccn2)c(O)c2ccccc21 [compound 526, N-(4-chloropyridin-2-yl)-4-hydroxy-1-isobutyl-2-oxo-1,2-dihydroquinoline-3-carboxamide]	20.3 µM	
	Cc1cnccc1NC(=O)c1c(O)c2ccccc2n(CC(C)C)c1=O [compound 551, 4-hydroxy-1-isobutyl-N-(3-methylpyridin-4-yl)-2-oxo-1,2-dihydroquinoline-3-carboxamide]	6.7 µM	

IC50 [1]	Compound	IC50 [2]	other results
	Cc1cccnc1NC(=O)c1c(O)c2ccc(N3CCN(C)CC3)cc2n(CC(C)C)c1=O [580(01)]	13.3 µM	
	Cc1ccnc(NC(=O)c2c(O)c3ccccc3n(Cc3ccccc3)c2=O)c1 [SSTN-410]	21.9 µM	
	Cc1cccnc1NC(=O)c1c(O)c2ccccc2n(CC(C)C)c1=O [compound 513, 4-hydroxy-1-isobutyl-N-(3-methylpyridin-2-yl)-2-oxo-1,2-dihydroquinoline-3-carboxamide]	11.1 µM	
7.76 µM	CC(C)Cn1c(=O)c(C(=O)Nc2cccc(F)c2N2CCN(C)CC2)c(O)c2ccccc21 [SSTN-581_Formate salt, N-(3-fluoro-2-(4-methylpiperazin-1-yl)phenyl)-4-hydroxy-1-isobutyl-2-oxo-1,2-dihydroquinoline-3-carboxamide formate salt]		
9.69 µM	CC(C)Cn1c(=O)c(C(=O)Nc2cccc(F)c2)c(O)c2cc(N3CCN(C)CC3)ccc21 [SSTN-577, N-(3-fluorophenyl)-4-hydroxy-1-isobutyl-6-(4-methylpiperazin-1-yl)-2-oxo-1,2-dihydroquinoline-3-carboxamide]		
	CC(C)Cn1c(=O)c(C(=O)NCc2ccco2)c(O)c2ccccc21 [compound 541, N-(furan-2-ylmethyl)-4-hydroxy-1-isobutyl-2-oxo-1,2-dihydroquinoline-3-carboxamide]	15.1 µM	
	COc1ccc2c(c1)c(O)c(C(=O)Nc1ncccc1C)c(=O)n2CC(C)C [compound 514, 4-hydroxy-1-isobutyl-6-methoxy-N-(3-methylpyridin-2-yl)-2-oxo-1,2-dihydroquinoline-3-carboxamide]	13.6 µM	
6.44 µM	CC(C)Cn1c(=O)c(C(=O)Nc2cccc(F)c2)c(O)c2cc(N3CCN(C)CC3)ccc21 [SSTN-577_HCl salt, N-(3-fluorophenyl)-4-hydroxy-1-isobutyl-6-(4-methylpiperazin-1-yl)-2-oxo-1,2-dihydroquinoline-3-carboxamide hydrochloride salt]		
	Cc1cccnc1NC(=O)c1c(O)c2c(Br)cccc2n(CC(C)C)c1=O [compound 563, 5-bromo-4-hydroxy-1-isobutyl-N-(3-methylpyridin-2-yl)-2-oxo-1,2-dihydroquinoline-3-carboxamide]	8 µM	
	O=C(Nc1ccc(F)cc1)c1c(O)c2cccnc2n(-c2ccccc2)c1=O [SSTN-443]	9 µM	
	CCCn1c2c(c(O)c(C(=O)Nc3ccccn3)c1=O)CCCC2 [SSTN-401]	21.6 µM	
	CC(C)Cn1c(=O)c(C(=O)Nc2cccc(F)c2)c(O)c2cc(N3CCN(C)CC3)ccc21 [577(01)]	9.7 µM	
6.33 µM	CC(C)Cn1c(=O)c(C(=O)Nc2cc(F)cc(N3CCN(C)CC3)c2)c(O)c2ccccc21 [SSTN-583_HCl salt, N-(3-fluoro-5-(4-methylpiperazin-1-yl)phenyl)-4-hydroxy-1-isobutyl-2-oxo-1,2-dihydroquinoline-3-carboxamide hydrochloride salt]		
	O=C(Nc1ccccc1)c1c(O)c2c(n(Cc3ccco3)c1=O)CCCC2 [SSTN-379]	27.5 µM	
6.04 µM	CC(C)Cn1c(=O)c(C(=O)Nc2ccc(F)c(N3CCN(C)CC3)c2)c(O)c2ccccc21 [SSTN-584_HCl salt, N-(4-fluoro-3-(4-methylpiperazin-1-yl)phenyl)-4-hydroxy-1-isobutyl-2-oxo-1,2-dihydroquinoline-3-carboxamide hydrochloride salt]		
	CC(C)Cn1c(=O)c(C(=O)Nc2cc(N3CCOCC3)ccn2)c(O)c2ccccc21 [compound 527, 4-hydroxy-1-isobutyl-N-(4-morpholinopyridin-2-yl)-2-oxo-1,2-dihydroquinoline-3-carboxamide]	8.5 µM	
18.4 µM	Cc1cccnc1NC(=O)c1c(O)c2cc(N3CCN(C)CC3)ccc2n(CC(C)C)c1=O [SSTN-579, 4-hydroxy-1-isobutyl-6-(4-methylpiperazin-1-yl)-N-(3-methylpyridin-2-yl)-2-oxo-1,2-dihydroquinoline-3-carboxamide]		
8.42 µM	CC(C)Cn1c(=O)c(C(=O)Nc2ccc(N3CCN(C)CC3)cc2)c(O)c2ccccc21 [SSTN-569, 4-hydroxy-1-isobutyl-N-(4-(4-methylpiperazin-1-yl)phenyl)-2-oxo-1,2-dihydroquinoline-3-carboxamide]		
	Cc1ccccc1NC(=O)c1c(O)c2ccccc2n(CC(C)C)c1=O [compound 535, 4-hydroxy-1-isobutyl-2-oxo-N-(o-tolyl)-1,2-dihydroquinoline-3-carboxamide]	5.9 µM	
